Laboratory results taken from patent publication US20230087118A1, “IMIDAZO[1,2-a][sequence] DERIVATIVES AND THEIR USE IN THE TREATMENT OF DISEASE” (priority 2019, published 2023).
pIC50: −log10 of the molar value. Structures can show the parent of a compound that is named as a salt. Where two headings read alike, the source gives them in different places.

Target: T1, IRAK4 (Homo sapiens, UniProt Q9NWZ3)
T1 sequence (Q9NWZ3 1-460): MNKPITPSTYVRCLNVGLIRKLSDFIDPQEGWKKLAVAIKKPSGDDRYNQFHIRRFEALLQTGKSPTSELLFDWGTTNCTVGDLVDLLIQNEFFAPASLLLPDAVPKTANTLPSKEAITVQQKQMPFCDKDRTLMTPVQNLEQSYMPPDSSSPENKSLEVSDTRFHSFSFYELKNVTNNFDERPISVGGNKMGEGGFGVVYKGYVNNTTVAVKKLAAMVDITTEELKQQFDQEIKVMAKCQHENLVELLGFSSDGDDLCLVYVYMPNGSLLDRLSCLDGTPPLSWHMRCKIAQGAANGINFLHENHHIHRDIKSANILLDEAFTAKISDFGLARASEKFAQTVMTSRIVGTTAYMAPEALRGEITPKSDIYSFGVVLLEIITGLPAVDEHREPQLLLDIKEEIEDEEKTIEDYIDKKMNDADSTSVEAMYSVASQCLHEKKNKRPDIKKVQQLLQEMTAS
Assay: biochemical
Conditions: for IC50: IRAK4 Biochemical Assay (1 mM ATP, 2 h) IC50 (μM), 1 mM ATP, 2 h, 100 pM IRAK4

pIC50 | IC50 [µM] | Structure (SMILES)
9.70 |  | CC(C)Oc1nc2nc(C34CCC(C)(CC3)OC4)cn2cc1C(=O)Nc1cccn(C(F)F)c1=O [Example 384, N-(1-(difluoromethyl)-2-oxo-1,2-dihydropyridin-3-yl)-7-isopropoxy-2-(1-methyl-2-oxabicyclo[2.2.2]octan-4-yl)imidazo[1,2-a]pyrimidine-6-carboxamide]
9.30 |  | Cc1cnc2c(NC(=O)c3cn4cc(C56COC(CF)(C5)C6)nc4nc3OC(C)C)cnn2c1 [Example 434]
 | 0.0137 | CCc1cccc(NC(=O)c2cn3cc(C4CCOCC4)nc3cc2OC)n1 [Example 59]
 | 0.0061 | CCOc1nc(C(=O)Nc2cc(F)cn(C)c2=O)cn2cc(C34CCC(C)(C3)OC4)nc12 (centres unmarked) [Example 277, 8-Ethoxy-N-(5-fluoro-1-methyl-2-oxo-1,2-dihydropyridin-3-yl)-2-(1-methyl-2-oxabicyclo[2.2.1]heptan-4-yl)imidazo[1,2-a]pyrazine-6-carboxamide trifluoroacetate]
8.82 |  | CCOc1nc2nc(C34COC(C)(C3)C4)cn2cc1C(=O)Nc1cccc(C(F)F)n1 [Example 241]
9.30 |  | CC12CCC(c3cn4cc(C(=O)Nc5cnn6cc(F)cnc56)c(OC5CC5)cc4n3)(CO1)C2 (centres unmarked) [Example 556]
8.40 |  | CC(C)Oc1cc2nc(C34CCC(C)(C3)OC4)cn2cc1C(=O)Nc1ccccn1 (centres unmarked) [Example 518, 7-Isopropoxy-2-(1-methyl-2-oxabicyclo[2.2.1]heptan-4-yl)-N-(pyridin-2-yl)imidazo[1,2-a]pyridine-6-carboxamide]
9.30 |  | CC(C)Oc1nc2nc([C@@]34CC[C@@](C)(C3)OC4)cn2cc1C(=O)Nc1cccn(C)c1=O (single isomer, unassigned) [Example 652]
8.41 |  | CCOc1nc(C(=O)Nc2cccc(C(F)F)c2)cn2cc(C34COC(C)(C3)C4)nc12 [Example 494, N-(3-(difluoromethyl)phenyl)-8-ethoxy-2-(1-methyl-2-oxabicyclo[2.1.1]hexan-4-yl)imidazo[1,2-a]pyrazine-6-carboxamide]
8.60 |  | COc1cc2nc(C34CCOC(C)(C3)C4)cn2cc1C(=O)Nc1cccc(C(F)F)n1 [Example 233]
7.53 |  | COc1cc2nc(C34COC(C)(C3)C4)cn2cc1C(=O)Nc1ccccn1 [Example 1, 7-Methoxy-2-(1-methyl-2-oxabicyclo[2.1.1]hexan-4-yl)-N-(2-pyridyl)imidazo[1,2-a]pyridine-6-carboxamide]
 | 0.0041 | COc1cccc(NC(=O)c2cn3cc(C45CCC(C)(CC4)OC5)nc3cc2OC)n1 [Example 29]
6.83 |  | COc1cc2nc(C3CCOCC3)cn2cc1C(=O)Nc1cccnc1C(C)C [Example 187]
9.70 |  | CC(C)Oc1nc2nc(C34COC(C)(C3)C4)cn2cc1C(=O)Nc1cccc(-c2cnco2)n1 [Example 368, 7-Isopropoxy-2-(1-methyl-2-oxabicyclo[2.1.1]hexan-4-yl)-N-(6-(oxazol-5-yl)pyridin-2-yl)imidazo[1,2-a]pyrimidine-6-carboxamide]
9.70 |  | Cc1ccn2ncc(NC(=O)c3cn4cc(C56COC(C)(C5)C6)nc4cc3OC(C)C)c2n1 [Example 263, 7-Isopropoxy-2-(1-methyl-2-oxabicyclo[2.1.1]hexan-4-yl)-N-(5-methylpyrazolo[1,5-a]pyrimidin-3-yl)imidazo[1,2-a]pyridine-6-carboxamide]
8.55 |  | COc1cc2nc(C34COC(C)(C3)C4)cn2cc1C(=O)Nc1cccc(C(F)F)n1 [Example 293, N-(6-(difluoromethyl)pyridin-2-yl)-7-methoxy-2-(1-methyl-2-oxabicyclo[2.1.1]hexan-4-yl)imidazo[1,2-a]pyridine-6-carboxamide]
6.25 |  | COc1cc2nc(C3CCOCC3)cn2cc1C(=O)Nc1ccc(C)n(C)c1=O [Example 182]

pIC50 | IC50 [µM] | Structure (SMILES)
9.22 |  | C[C@@]12CC[C@@](c3cn4cc(C(=O)Nc5cccc(C(F)F)n5)nc(OC5CCC5)c4n3)(CO1)C2 (single isomer, unassigned) [Example 626]
8.82 |  | CC(C)Oc1nc2nc(C34COC(C)(C3)C4)cn2cc1C(=O)Nc1cccn2cnnc12 [Example 409, N-([1,2,4]triazolo[4,3-a]pyridin-8-yl)-7-isopropoxy-2-(1-methyl-2-oxabicyclo[2.1.1]hexan-4-yl)imidazo[1,2-a]pyrimidine-6-carboxamide]
 | 0.005 | CC(C)Oc1cc2nc(C34COC(C)(C3)C4)cn2cc1C(=O)Nc1cnn(C)n1 [Example 316, 7-Isopropoxy-N-(2-methyl-2H-1,2,3-triazol-4-yl)-2-(1-methyl-2-oxabicyclo[2.1.1]hexan-4-yl)imidazo[1,2-a]pyridine-6-carboxamide trifluoroacetate]
 | 0.0005 | COc1ncccc1NC(=O)c1cn2cc(C34COC(C)(C3)C4)nc2nc1OC(C)C [Example 305, 7-Isopropoxy-N-(2-methoxypyridin-3-yl)-2-(1-methyl-2-oxabicyclo[2.1.1]hexan-4-yl)imidazo[1,2-a]pyrimidine-6-carboxamide trifluoroacetate]
8.92 |  | CC[C@@H](C)Oc1cc2nc(C34COC(C)(C3)C4)cn2cc1C(=O)Nc1cnn2cc(C)cnc12 [Example 560]
8.49 |  | COc1ncccc1NC(=O)c1cn2cc([C@@]34CC[C@@](C)(C3)OC4)nc2c(OC)n1 (single isomer, unassigned) [Example 587]
8.44 |  | CC(C)Oc1cc2nc(C34COC(C)(C3)C4)cn2cc1C(=O)Nc1ccn(CC#N)n1 [Example 313, N-(1-(cyanomethyl)-1H-pyrazol-3-yl)-7-isopropoxy-2-(1-methyl-2-oxabicyclo[2.1.1]hexan-4-yl)imidazo[1,2-a]pyridine-6-carboxamide]
9.10 |  | CC(C)Oc1nc2nc(C34COC(C)(C3)C4)cn2cc1C(=O)Nc1cccc(OC(F)F)n1 [Example 411, N-(6-(difluoromethoxy)pyridin-2-yl)-7-isopropoxy-2-(1-methyl-2-oxabicyclo[2.1.1]hexan-4-yl)imidazo[1,2-a]pyrimidine-6-carboxamide]
 | 0.0105 | CCc1cccc(NC(=O)c2cn3cc(C45COC(CF)(C4)C5)nc3cc2OC)n1 [Example 58, N-(6-ethylpyridin-2-yl)-2-(1-(fluoromethyl)-2-oxabicyclo[2.1.1]hexan-4-yl)-7-methoxyimidazo[1,2-a]pyridine-6-carboxamide trifluoroacetate]
8.17 |  | CC(C)Oc1nc2nc(C34COC(C)(C3)C4)cn2cc1C(=O)Nc1cnn2cc(C3CC3)cnc12 [Example 375, N-(6-cyclopropylpyrazolo[1,5-a]pyrimidin-3-yl)-7-isopropoxy-2-(1-methyl-2-oxabicyclo[2.1.1]hexan-4-yl)imidazo[1,2-a]pyrimidine-6-carboxamide]
 | 0.0969 | COc1cccc(NC(=O)c2cn3cc(C45CC(C)(C4)OC54COC4)nc3cc2OC)n1 [Example 28]
8.49 |  | CC(C)Oc1nc2nc(C34COC(C)(C3)C4)cn2cc1C(=O)Nc1cccnc1OC(F)F [Example 389, N-(2-(difluoromethoxy)pyridin-3-yl)-7-isopropoxy-2-(1-methyl-2-oxabicyclo[2.1.1]hexan-4-yl)imidazo[1,2-a]pyrimidine-6-carboxamide]
8.72 |  | CC12CC(c3cn4cc(C(=O)Nc5cnn6cccnc56)c(OC5CC5)cc4n3)(CO1)C2 [Example 551]
7.87 |  | CC(C)Oc1nc(C(=O)Nc2ccnc3ccnn23)cn2cc(C34COC(C)(C3)C4)nc12 [Example 400, 8-Isopropoxy-2-(1-methyl-2-oxabicyclo[2.1.1]hexan-4-yl)-N-(pyrazolo[1,5-a]pyrimidin-7-yl)imidazo[1,2-a]pyrazine-6-carboxamide]
8.89 |  | Cn1ccc(NC(=O)c2cn3cc([C@]45CC[C@](C)(C4)OC5)nc3cc2OC2CCC2)n1 (single isomer, unassigned) [Example 611]
9.52 |  | CC(C)Oc1nc2nc(C34CCOC(C)(C3)C4)cn2cc1C(=O)Nc1cccc(C(F)(F)F)n1 [Example 237]
 | 0.0412 | CN1CCC(Oc2cc3nc(C4CC4)cn3cc2C(=O)Nc2cccc(C(F)F)n2)C1=O (centres unmarked) [Example 469, 2-Cyclopropyl-N-(6-(difluoromethyl)pyridin-2-yl)-7-((1-methyl-2-oxopyrrolidin-3-yl)oxy)imidazo[1,2-a]pyridine-6-carboxamide]

Structure (SMILES) | pIC50 | IC50 [µM]
CC(C)Oc1nc2nc(C34COC(C)(C3)C4)cn2cc1C(=O)Nc1cnn2cccnc12 [Example 307, 7-Isopropoxy-2-(1-methyl-2-oxabicyclo[2.1.1]hexan-4-yl)-N-(pyrazolo[1,5-a]pyrimidin-3-yl)imidazo[1,2-a]pyrimidine-6-carboxamide] |  | 0.0005
Cc1cc(-n2ccc(NC(=O)c3cn4cc(C56COC(C)(C5)C6)nc4cc3OC3CCC3)n2)ccn1 [Example 522, 7-Cyclobutoxy-2-(1-methyl-2-oxabicyclo[2.1.1]hexan-4-yl)-N-(1-(2-methylpyridin-4-yl)-1H-pyrazol-3-yl)imidazo[1,2-a]pyridine-6-carboxamide] | 9.30 | 
CC1(C)CC(Oc2cc3nc(C45COC(C)(C4)C5)cn3cc2C(=O)Nc2cccn(C(F)F)c2=O)C1 [Example 445, N-(1-(difluoromethyl)-2-oxo-1,2-dihydropyridin-3-yl)-7-(3,3-dimethylcyclobutoxy)-2-(1-methyl-2-oxabicyclo[2.1.1]hexan-4-yl)imidazo[1,2-a]pyridine-6-carboxamide] | 9.22 | 
CCn1cccc(NC(=O)c2cn3cc(C45CCC(C)(CC4)OC5)nc3cc2OC2CCC2)c1=O [Example 420, 7-Cyclobutoxy-N-(1-ethyl-2-oxo-1,2-dihydropyridin-3-yl)-2-(1-methyl-2-oxabicyclo[2.2.2]octan-4-yl)imidazo[1,2-a]pyridine-6-carboxamide] | 9.52 | 
